US11524962B2, “Substituted pyrrolo[2,3-d]pyrimidines as inhibitors of protein arginine methyl transferase 5 (PRMT5)” (PRELUDE THERAPEUTICS, INCORPORATED, priority 2017, dated 2022)
Where two headings read alike, the source gives them in different places.

Legend:
PRMT5/MEP50 complex [1] = biological target: T1, PRMT5/MEP50 complex (Homo sapiens (Human), UniProt O14744); experiment: Flash plate assay; format: biochemical
How it was run: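 Inhibition of the human PRMT5/MEP50 complex was measured radiometrically. Compounds in 3-fold DMSO dilutions were preincubated 20 minutes at 37° C with 2.5 nM enzyme and 300 nM AcH4-23 histone H4 peptide in 30 μl assay buffer. S-[3H-methyl]-adenosyl-L-methionine (1 μM) was then added for 30 minutes at 37° C. Reactions were stopped with 8M Guanidine HCl, captured on streptavidin SPA beads and scintillation counted. IC50 values came from 4-parameter fits.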

[2] = test system: Symmetric Di-Methyl Arginine (sDMA) marks in Granta-519 cells; experiment: sDMA Western blot / In Cell Western in Granta-519 cells; format: cell-based; details: Homo sapiens
Protocol: Compound titration and cell culture: Compounds were dissolved in DMSO to make 10 mM stock and 3-fold series dilutions were further conducted to make working stocks top at 1 mM. Granta-519 cells were maintained in PRMI 1640 (Corning Cellgro, Catalog #: 10-040-CV) supplemented with 10% v/v FBS (GE Healthcare, Catalog #: SH30910.03) and U-87 MG cells were maintained in DMEM (Corning Cellgro, Catalog #: 10-013-CV) with 10% FBS and 2 mM Glutamin (Corning Cellgro, Catalog #25005CV).
To determine enzyme inhibition IC50 values in Granta-519 and U-87 MG cells using Western Blot analysis. One day before experiment, Granta-519 cells were passaged to a density of 0.5×10^6 cells/ml. U-87 MG cells were trypsinized and 4×10^5 cells were seeded into 6-well plates and allow to grow overnight. The next day, Granta-519 cells were spun down at 1,500 rpm for 4 min, resuspend in fresh medium at 0.5×10^6 cells/ml and 3 mL of culture (1.5×10^6 cells) were seeded into 6 well plate. Eight-point, 3-fold serial dilutions of compound working stocks were added to cells (3 ul, 1:1,000 dilution, DMSO concentration was 0.1%; final top concentration at 1 uM) and incubated for 3 days. Cells incubated with DMSO was used as a vehicle control.
Cells were harvested 3 days later, resuspended in 15 uL PBS, lysed in 4% SDS, and homogenized by passing through homogenizer column (Omega Biotek, Catalog #: HCR003). Total protein concentrations were determined by BCA assay (ThermoFisher Scientific, Catalog #: 23225). Lysates were mixed with 5× Laemmli buffer and boiled for 5 min. Forty ug of total protein was separated on SDS-PAGE gels (Bio-Rad, catalog #: 4568083, 4568043), transferred to PVDF membrane, blocked with 5% dry milk (Bio-Rad, Catalog #: 1706404) in TBS with 0.1% v/v Tween 20 (TBST) for 1 hour at room temperature (RT), and incubated with primary antibodies (sDMA: Cell signaling, Catalog #: 13222, 1:3,000; β-Actin: sigma, Catalog #: 1:5,000) in 5% dry milk in TBST at 4° C. overnight. The next day, membranes were washed with TBST, 5×5 min, and incubated with HRP conjugated seconded antibody (GE Healthcare; Catalog #: NA934-1ML, NA931-1ML; 1:5,000) for 2 hours at RT, followed by 5×5 min washes with TBST, and incubation with ECL substrates (Bio-Rad, Catalog #: 1705061, 1705062). Chemiluminescent signal was captured with Fluochem HD2 imager (Proteinsimple). SmD3me2s bands were quantified by ImageJ. Signals were normalized to β-Actin and DMSO control. IC50 values were calculated using Graphpad Prism ([Inhibitor]vs. normalized response−Variable slope).
sDMA In Cell Western procedure (ICW): Granta-519 cells were passaged to a density of 0.5×10^6 cells/ml one day before experiments and allowed to grow overnight. The next day (day 0), cells were spun down at 1,500 rpm for 4 min, resuspended in fresh medium to 0.2×10^6 cells/ml and 100 uL of cells were added to 384-well plates using a Multidrop Combi Dispenser (ThermoFisher). A series of 9-point, 3-fold serial dilutions of compounds were prepared and dispensed into wells from a 1 mM stock solution using a TECAN digital dispenser (D300e) and the DMSO % concentration was normalized in each well to 0.1%. DMSO and 3 uM of reference compounds were used as negative (minimum inhibition) and positive (maximum inhibition) controls, respectively. After 3 days of incubation, cells were first resuspended and then 80 ul of cells were transferred to a Poly-D-lysine 384-well plate (Corning, Catalog #354663), followed by 30 minutes incubation at room temperature (RT) and 5 additional hours of incubation at 37° C. […]

PRMT5/MEP50 complex [3] = biological target: T1, PRMT5/MEP50 complex; experiment: HotSpot Assay; format: biochemical
Protocol: HotSpot Assay. Compounds were solubilized and 3-fold diluted in 100% DMSO. […] Standard reactions were performed in a total volume of 50 μl in assay buffer, with histone H2A (5 μM final) as substrate. To this was added the PRMT5/MEP50 complex diluted to provide a final assay concentration of 5 nM and the compounds were allowed to preincubate for 15 to 20 minutes at room temperature. The reaction was initiated by adding S-[3H-methyl]-adenosyl-L-methionine (PerkinElmer) to final concentration of 1 μM. Following a 60 minutes incubation at 30° C., the reaction was stopped by adding 100 μL of 20% TCA. Each reaction was spotted onto filter plate (MultiScreen FB Filter Plate, Millipore), and washed 5 times with PBS buffer, Scintillation fluid was added to the filter plate and read in a scintillation counter. IC50 values were determined by fitting the data to the standard 4 parameters with Hill Slope using GraphPad Prism software. This procedure generated the HotSpot data in Table 7.

[4] = 72 h, Granta-519, 3 days, read-out: sDMA_Granta IC50
[5] = initial testing, read-out: IC50 (flash plate)

T1 sequence (O14744 whole entry): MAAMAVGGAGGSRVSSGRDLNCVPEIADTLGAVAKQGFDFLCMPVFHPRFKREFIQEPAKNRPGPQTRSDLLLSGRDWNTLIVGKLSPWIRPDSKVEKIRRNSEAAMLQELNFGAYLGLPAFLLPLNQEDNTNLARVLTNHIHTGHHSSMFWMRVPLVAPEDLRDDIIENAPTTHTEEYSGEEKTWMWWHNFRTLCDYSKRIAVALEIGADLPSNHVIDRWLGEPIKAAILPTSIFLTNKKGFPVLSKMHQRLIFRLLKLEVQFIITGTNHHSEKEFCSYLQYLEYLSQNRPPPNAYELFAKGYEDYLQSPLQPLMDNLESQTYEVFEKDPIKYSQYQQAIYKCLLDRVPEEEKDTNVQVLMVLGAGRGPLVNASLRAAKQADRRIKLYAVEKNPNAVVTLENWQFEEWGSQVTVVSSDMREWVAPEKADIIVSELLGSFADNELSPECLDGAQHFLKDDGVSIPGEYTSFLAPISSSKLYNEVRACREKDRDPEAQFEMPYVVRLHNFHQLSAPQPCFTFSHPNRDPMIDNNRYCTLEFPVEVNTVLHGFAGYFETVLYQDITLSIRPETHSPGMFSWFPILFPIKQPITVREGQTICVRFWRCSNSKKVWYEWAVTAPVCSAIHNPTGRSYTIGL
T1 sequence (Q9BQA1 whole entry partner): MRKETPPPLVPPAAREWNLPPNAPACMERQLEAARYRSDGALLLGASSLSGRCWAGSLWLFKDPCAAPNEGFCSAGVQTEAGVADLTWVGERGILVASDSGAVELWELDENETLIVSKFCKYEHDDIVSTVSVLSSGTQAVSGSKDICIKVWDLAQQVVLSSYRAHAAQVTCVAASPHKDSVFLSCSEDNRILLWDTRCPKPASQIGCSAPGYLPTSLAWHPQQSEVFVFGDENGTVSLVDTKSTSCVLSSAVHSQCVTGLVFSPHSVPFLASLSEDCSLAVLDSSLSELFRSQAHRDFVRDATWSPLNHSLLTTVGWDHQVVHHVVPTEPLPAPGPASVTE

Row | SMILES | IC50 (PRMT5/MEP50 complex [1]; read-out: Flash Plate IC50) [nM] | IC50 [2, 4] [nM] | IC50 (PRMT5/MEP50 complex [3]) [nM] | IC50 (PRMT5/MEP50 complex [1]; [5]) [nM] | IC50 ([2]; Granta-519, initial testing, read-out: sDMS (Granta) IC50) [nM]
1 | O[C@@H]1[C@H](O)[C@@H]([C@H](O)c2ccc3c(c2)CC3)O[C@H]1n1ccc2c(Cl)ncnc21 [Example 56, (2R,3S,4R,5R)-2-((R)-bicyclo[4.2.0]octa-1(6),2,4-trien-3-yl(hydroxy)methyl)-5-(4-chloro-7H-pyrrolo[2,3-d]pyrimidin-7-yl)tetrahydrofuran-3,4-diol] | 17.6 | 923 | – | – | –
2 | Nc1ncnc2c1c(Br)cn2[C@@H]1O[C@H]([C@H](O)c2ccc3c(c2)CC3)[C@@H](O)[C@H]1O [Example 36, (2R,3R,4S,5R)-2-(4-amino-5-bromo-7H-pyrrolo[2,3-d]pyrimidin-7-yl)-5-((R)-bicyclo[4.2.0]octa-1,3,5-trien-3-yl(hydroxy)methyl)tetrahydrofuran-3,4-diol] | 20 | 3780 | 11 | – | –
3 | C[C@@](O)(c1ccc2c(c1)CC2)[C@H]1O[C@@H](n2ccc3c(N)ncnc32)[C@H](O)[C@@H]1O [Example 1, (2R,3R,4S,5S)-2-(4-amino-7H-pyrrolo[2,3-d]pyrimidin-7-yl)-5-((R)-1-(bicyclo[4.2.0]octa-1(6),2,4-trien-3-yl)-1-hydroxyethyl)tetrahydrofuran-3,4-diol] | 6.2 | 22 | 3 | 6.3 | 9
4 | Nc1ncnc2c1c(F)cn2[C@@H]1O[C@H]([C@H](O)c2ccc3c(c2)CC3)[C@@H](O)[C@H]1O [Example 6, (2R,3R,4S,5R)-2-(4-amino-5-fluoro-7H-pyrrolo[2,3-d]pyrimidin-7-yl)-5-((R)-bicyclo[4.2.0]octa-1(6),2,4-trien-3-yl(hydroxy)methyl)tetrahydrofuran-3,4-diol] | 2.8 | 38 | 0.7 | – | –
5 | CNc1ncnc2c1ccn2[C@@H]1O[C@H]([C@H](O)c2ccc3c(c2)CC3)[C@@H](O)[C@H]1O [Example 54, (2R,3S,4R,5R)-2-((R)-bicyclo[4.2.0]octa-1(6),2,4-trien-3-yl(hydroxy)methyl)-5-(4-(methylamino)-7H-pyrrolo[2,3-d]pyrimidin-7-yl)tetrahydrofuran-3,4-diol] | 37.6 | 759 | – | – | –
6 | Cc1ncnc2c1ccn2[C@@H]1O[C@H]([C@H](O)c2ccc3c(c2)CC3)[C@@H](O)[C@H]1O [Example 11, (2R,3S,4R,5R)-2-((R)-bicyclo[4.2.0]octa-1(6),2,4-trien-3-yl(hydroxy)methyl)-5-(4-methyl-7H-pyrrolo[2,3-d]pyrimidin-7-yl)tetrahydrofuran-3,4-diol] | 6.8 | 33 | 3 | 5.9 | –
7 | Cc1ncnc2c1ccn2[C@@H]1O[C@H]([C@H](O)c2nc3c(s2)CCC3)[C@@H](O)[C@H]1O [Example 52, (2S,3S,4R,5R)-2-((S)-(5,6-dihydro-4H-cyclopenta[d]thiazol-2-yl)(hydroxy)methyl)-5-(4-methyl-7H-pyrrolo[2,3-d]pyrimidin-7-yl)tetrahydrofuran-3,4-diol] | 9.3 | 1700 | 9 | – | –
8 | OCCc1ncnc2c1ccn2[C@@H]1O[C@H]([C@H](O)c2ccc3c(c2)CC3)[C@@H](O)[C@H]1O [Example 53, (2R,3S,4R,5R)-2-((R)-bicyclo[4.2.0]octa-1,3,5-trien-3-yl(hydroxy)methyl)-5-(4-(2-hydroxyethyl)-7H-pyrrolo[2,3-d]pyrimidin-7-yl)tetrahydrofuran-3,4-diol] | 134 | 5240 | 164 | – | –
9 | Nc1ncnc2c1ccn2[C@@H]1O[C@H]([C@H](O)c2ccc3c(c2)CC3)[C@@H](O)[C@H]1O [Example 2, (2R,3R,4S,5R)-2-(4-amino-7H-pyrrolo[2,3-d]pyrimidin-7-yl)-5-((R)-bicyclo[4.2.0]octa-1(6),2,4-trien-3-yl(hydroxy)methyl)tetrahydrofuran-3,4-diol] | 4.1 | 20 | 2 | 4.2 | –
